Consider 1 compound from BindingDB's records for doi:10.1016/s0006-2952(02)01515-0 (Aventis Pharma, 2003).

Usually pKi stands for the Ki on a negative log10 scale, so that one unit is a factor of ten. A low value points to a high Ki.

Assay [1] addresses D(3) dopamine receptor (Homo sapiens, UniProt P35462).
The target in assay [2] is 5-hydroxytryptamine receptor 2A (Homo sapiens, UniProt P28223).
The target of assay [3] is Histamine H1 receptor (Cavia porcellus, UniProt P31389).
The target of assay [4] is Histamine H2 receptor (Cavia porcellus, UniProt P47747).
The target of assay [5] is Gamma-aminobutyric acid (GABA) B receptor 1 (Rattus norvegicus, UniProt Q6MFX8).
The target in assay [6] is 5-hydroxytryptamine receptor 7 (Homo sapiens, UniProt P34969).
Assay [7] addresses D(4) dopamine receptor (Homo sapiens, UniProt P21917).
Assay [8] concerns the target 5-hydroxytryptamine receptor 3A (Mus musculus, UniProt P23979).
The target in assay [9] is 5-hydroxytryptamine receptor 3A (Homo sapiens, UniProt P46098).
Assay [10] has as its target Muscarinic acetylcholine receptor M3 (Homo sapiens, UniProt P20309).
The target of assay [11] is D(2) dopamine receptor (Homo sapiens, UniProt P14416).
Chain of D(2) dopamine receptor (P14416 whole entry): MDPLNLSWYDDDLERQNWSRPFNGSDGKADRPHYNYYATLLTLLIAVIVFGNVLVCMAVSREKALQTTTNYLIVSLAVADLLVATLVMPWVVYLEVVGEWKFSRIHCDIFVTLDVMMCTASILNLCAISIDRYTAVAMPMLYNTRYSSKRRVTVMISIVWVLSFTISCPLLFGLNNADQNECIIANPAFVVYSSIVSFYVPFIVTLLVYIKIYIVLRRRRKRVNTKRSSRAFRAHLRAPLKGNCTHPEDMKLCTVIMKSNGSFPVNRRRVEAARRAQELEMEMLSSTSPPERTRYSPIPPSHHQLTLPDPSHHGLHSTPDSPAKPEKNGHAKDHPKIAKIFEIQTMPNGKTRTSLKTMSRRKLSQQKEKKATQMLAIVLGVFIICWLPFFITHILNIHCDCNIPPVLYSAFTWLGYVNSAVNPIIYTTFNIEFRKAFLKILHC
In assay [12] the target is Alpha-1A adrenergic receptor (Rattus norvegicus, UniProt P43140).
For assay [13], the target named is D(1A) dopamine receptor (Homo sapiens, UniProt P21728).
Chain of D(1A) dopamine receptor (P21728 whole entry): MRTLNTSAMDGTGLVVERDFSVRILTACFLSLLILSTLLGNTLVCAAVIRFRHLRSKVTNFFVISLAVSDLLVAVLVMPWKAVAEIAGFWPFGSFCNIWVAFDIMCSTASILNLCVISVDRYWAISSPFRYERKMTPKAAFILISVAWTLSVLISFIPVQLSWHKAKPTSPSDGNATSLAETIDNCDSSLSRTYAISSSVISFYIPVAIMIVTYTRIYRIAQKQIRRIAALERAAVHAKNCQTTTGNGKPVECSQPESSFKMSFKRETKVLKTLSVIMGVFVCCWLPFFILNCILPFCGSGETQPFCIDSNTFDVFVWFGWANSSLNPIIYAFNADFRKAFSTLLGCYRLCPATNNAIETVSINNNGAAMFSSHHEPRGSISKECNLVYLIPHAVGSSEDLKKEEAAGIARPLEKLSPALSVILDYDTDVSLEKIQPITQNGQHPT
Assay [14] concerns the target Muscarinic acetylcholine receptor M2 (Homo sapiens, UniProt P08172).
In assay [15] the target is Muscarinic acetylcholine receptor M1 (Homo sapiens, UniProt P11229).
Chain of Muscarinic acetylcholine receptor M1 (P11229 whole entry): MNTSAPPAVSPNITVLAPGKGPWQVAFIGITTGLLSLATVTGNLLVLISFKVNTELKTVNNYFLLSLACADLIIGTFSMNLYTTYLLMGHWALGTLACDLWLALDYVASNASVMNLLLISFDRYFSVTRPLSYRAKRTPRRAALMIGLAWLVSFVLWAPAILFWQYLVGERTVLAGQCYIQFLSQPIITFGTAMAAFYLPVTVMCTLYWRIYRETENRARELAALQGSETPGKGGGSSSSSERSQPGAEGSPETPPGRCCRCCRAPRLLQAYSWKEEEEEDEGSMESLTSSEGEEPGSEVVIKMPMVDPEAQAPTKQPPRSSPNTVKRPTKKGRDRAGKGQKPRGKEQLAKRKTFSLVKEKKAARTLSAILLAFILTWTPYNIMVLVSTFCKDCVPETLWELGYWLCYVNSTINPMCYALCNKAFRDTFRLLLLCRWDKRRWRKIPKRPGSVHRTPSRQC
Assay [16] deals with Gamma-aminobutyric acid receptor subunit alpha-1 (Rattus norvegicus, UniProt P62813).
Chain of Gamma-aminobutyric acid receptor subunit alpha-1 (P62813 whole entry): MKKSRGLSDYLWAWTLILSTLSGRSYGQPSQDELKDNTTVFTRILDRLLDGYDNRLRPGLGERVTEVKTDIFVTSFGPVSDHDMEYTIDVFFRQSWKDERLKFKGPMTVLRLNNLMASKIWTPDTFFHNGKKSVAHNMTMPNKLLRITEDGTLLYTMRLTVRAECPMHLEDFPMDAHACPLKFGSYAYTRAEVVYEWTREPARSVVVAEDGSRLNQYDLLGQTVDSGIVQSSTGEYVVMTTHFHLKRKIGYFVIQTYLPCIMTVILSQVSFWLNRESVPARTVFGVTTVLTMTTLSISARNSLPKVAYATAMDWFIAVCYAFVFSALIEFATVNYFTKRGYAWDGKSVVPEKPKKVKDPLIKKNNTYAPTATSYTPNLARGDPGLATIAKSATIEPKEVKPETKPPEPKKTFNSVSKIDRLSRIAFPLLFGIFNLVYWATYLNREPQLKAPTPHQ
Assay [17] concerns the target Alpha-2C adrenergic receptor (Rattus norvegicus, UniProt P22086).
Assay [18] deals with Muscarinic acetylcholine receptor M4 (Homo sapiens, UniProt P08173).
Chain of Muscarinic acetylcholine receptor M4 (P08173 whole entry): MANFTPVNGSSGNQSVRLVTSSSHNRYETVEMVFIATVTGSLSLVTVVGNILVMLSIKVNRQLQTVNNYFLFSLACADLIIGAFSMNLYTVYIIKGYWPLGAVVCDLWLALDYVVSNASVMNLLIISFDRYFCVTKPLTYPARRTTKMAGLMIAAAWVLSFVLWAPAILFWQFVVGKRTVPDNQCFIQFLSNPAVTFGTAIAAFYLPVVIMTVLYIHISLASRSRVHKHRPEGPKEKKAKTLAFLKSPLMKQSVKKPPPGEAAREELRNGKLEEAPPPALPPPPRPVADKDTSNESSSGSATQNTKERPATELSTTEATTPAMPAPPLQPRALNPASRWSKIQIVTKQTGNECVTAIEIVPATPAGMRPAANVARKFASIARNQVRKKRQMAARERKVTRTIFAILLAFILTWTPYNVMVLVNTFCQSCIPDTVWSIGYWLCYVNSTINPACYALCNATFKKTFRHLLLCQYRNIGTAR
Assay [19] addresses Hrh3 protein (Rattus norvegicus, UniProt Q5PPG3).
In assay [20] the target is Muscarinic acetylcholine receptor M5 (Homo sapiens, UniProt P08912).
Chain of Muscarinic acetylcholine receptor M5 (P08912 whole entry): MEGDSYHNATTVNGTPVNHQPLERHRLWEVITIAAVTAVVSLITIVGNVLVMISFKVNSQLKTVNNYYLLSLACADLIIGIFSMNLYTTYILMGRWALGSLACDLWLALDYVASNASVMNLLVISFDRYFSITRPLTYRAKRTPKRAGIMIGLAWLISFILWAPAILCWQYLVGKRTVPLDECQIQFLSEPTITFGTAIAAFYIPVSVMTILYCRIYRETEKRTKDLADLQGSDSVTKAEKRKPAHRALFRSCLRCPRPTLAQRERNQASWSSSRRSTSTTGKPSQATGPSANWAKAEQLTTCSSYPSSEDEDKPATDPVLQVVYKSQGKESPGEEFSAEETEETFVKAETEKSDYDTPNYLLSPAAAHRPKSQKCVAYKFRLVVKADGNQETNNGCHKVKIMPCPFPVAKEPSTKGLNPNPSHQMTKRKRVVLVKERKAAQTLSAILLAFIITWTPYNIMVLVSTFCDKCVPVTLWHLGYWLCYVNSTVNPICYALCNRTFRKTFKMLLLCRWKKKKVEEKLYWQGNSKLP
Assay [21] has as its target 5-hydroxytryptamine receptor 2C (Homo sapiens, UniProt P28335).

pKi: −log10 of the molar value.

Chain of 5-hydroxytryptamine receptor 2C (P28335 whole entry): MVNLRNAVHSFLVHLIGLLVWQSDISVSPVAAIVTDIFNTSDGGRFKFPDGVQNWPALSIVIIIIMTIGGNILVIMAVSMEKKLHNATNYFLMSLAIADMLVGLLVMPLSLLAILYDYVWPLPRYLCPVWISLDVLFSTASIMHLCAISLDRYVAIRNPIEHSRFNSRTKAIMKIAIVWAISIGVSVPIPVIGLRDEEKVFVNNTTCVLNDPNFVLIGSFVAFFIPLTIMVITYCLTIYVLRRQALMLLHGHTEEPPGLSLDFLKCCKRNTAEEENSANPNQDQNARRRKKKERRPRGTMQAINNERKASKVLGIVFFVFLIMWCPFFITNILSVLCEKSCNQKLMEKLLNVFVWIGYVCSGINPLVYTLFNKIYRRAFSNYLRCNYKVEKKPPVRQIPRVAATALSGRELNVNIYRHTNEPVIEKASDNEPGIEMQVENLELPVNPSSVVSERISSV
Chain of Hrh3 protein (Q5PPG3 whole entry): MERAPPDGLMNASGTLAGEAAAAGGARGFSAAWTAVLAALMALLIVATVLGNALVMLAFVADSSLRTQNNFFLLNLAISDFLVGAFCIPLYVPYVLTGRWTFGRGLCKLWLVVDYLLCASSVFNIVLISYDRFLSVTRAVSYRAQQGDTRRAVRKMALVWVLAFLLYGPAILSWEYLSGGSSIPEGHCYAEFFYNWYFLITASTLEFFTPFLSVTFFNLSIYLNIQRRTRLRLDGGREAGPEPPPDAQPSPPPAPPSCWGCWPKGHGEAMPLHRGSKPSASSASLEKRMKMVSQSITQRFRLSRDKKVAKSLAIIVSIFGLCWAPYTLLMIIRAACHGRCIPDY
Chain of Muscarinic acetylcholine receptor M3 (P20309 whole entry): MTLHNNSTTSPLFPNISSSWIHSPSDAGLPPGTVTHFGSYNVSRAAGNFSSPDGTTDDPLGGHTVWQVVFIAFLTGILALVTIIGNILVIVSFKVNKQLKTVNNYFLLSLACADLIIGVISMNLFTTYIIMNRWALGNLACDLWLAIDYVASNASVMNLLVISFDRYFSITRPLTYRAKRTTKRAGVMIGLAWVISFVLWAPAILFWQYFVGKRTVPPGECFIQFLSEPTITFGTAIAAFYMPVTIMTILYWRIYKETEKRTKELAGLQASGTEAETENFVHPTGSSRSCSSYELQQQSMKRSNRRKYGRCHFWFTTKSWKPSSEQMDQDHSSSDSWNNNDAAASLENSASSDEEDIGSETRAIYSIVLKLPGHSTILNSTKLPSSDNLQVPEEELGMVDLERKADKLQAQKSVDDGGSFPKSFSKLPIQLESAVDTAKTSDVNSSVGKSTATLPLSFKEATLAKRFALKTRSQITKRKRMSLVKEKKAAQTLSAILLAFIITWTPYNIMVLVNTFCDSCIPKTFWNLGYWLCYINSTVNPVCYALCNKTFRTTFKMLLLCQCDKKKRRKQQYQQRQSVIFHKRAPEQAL
Chain of Alpha-2C adrenergic receptor (P22086 whole entry): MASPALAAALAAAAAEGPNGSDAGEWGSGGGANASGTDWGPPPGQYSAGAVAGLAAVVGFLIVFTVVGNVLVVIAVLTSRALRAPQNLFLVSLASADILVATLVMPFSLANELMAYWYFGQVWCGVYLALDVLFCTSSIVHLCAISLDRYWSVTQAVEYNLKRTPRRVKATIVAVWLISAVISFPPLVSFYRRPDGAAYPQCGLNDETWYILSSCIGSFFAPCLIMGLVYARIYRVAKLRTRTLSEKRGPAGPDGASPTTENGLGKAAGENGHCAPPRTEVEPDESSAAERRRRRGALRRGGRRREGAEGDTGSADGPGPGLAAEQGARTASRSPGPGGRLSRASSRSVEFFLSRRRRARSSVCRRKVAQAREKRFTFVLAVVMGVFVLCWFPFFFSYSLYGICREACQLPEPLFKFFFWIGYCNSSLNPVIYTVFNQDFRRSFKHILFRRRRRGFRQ

As to `CC(CN(C)C)CN1c2ccccc2Sc2ccc(C#N)cc21` (stereo unspecified) [CAS_62865], the negative logarithm of the Ki (pKi) in assay [1] was 8.60; in assay [2], 8.82; in [3], 8.03; in assay [4], 6.45; in assay [5], less than 5.00; in [6], 7.66. Besides, the pKi in assay [7] was 8.28; in assay [8], 7.12; in assay [9], 5.53; in [10] it was 7.49; in assay [11], 8.24; in assay [12], 8.64. For the same compound, the negative logarithm of the Ki (pKi) in [13] was 8.42; in assay [14], 7.38; in [15] it was 7.89; in assay [16], less than 5.00; in assay [17], 5.88; in assay [18], 7.92. Further, the results for the pKi in assay [19], in assay [20] and in assay [21] were less than 5.00, 7.46 and 7.92, respectively.
